Source: the supplement of paper PMC5908809

Tests used:
[1] = test system: normal NK cells expanded with K562-aAPC; test: drug sensitivity score (DSS) (DSS units); higher = more sensitive; extreme values may be limits of the assay; conditions: 72 h; IL-2 2.5 ng/mL
Experimental: (§1)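 Drug sensitivity and resistance testing on K562-aAPC-expanded normal NK cells: 5 concentrations (10-fold steps over a 10,000-fold range), 72 h at 37 °C, viability by CellTiter-Glo normalised to DMSO and benzethonium chloride controls; DSS from the fitted curve.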

DERL-7 (IL-2 2.5 ng/mL) [2] = test: percent inhibition of viability; higher = more inhibition; conditions: 72 h
[3] = test system: normal primary NK cells, pool 1 (3 donors), resting (IL-2 0 ng/mL); test: as above; conditions: 72 h
KHYG-1 (IL-2 2.5 ng/mL) [4] = test: as above; conditions: 72 h
[5] = test system: normal primary NK cells, pool 3 (3 donors) (IL-2 2.5 ng/mL); test: as above; conditions: 72 h
NKL (IL-2 2.5 ng/mL) [6] = test: as above; conditions: 72 h
SNK-6 (IL-2 2.5 ng/mL) [7] = test: as above; conditions: 72 h
NK-92 (IL-2 2.5 ng/mL) [8] = test: as above; conditions: 72 h
IMC-1 (IL-2 20 ng/mL) [9] = test: as above; conditions: 72 h
[10] = test system: normal primary NK cells, pool 2 (3 donors) (IL-2 2.5 ng/mL); test: as above; conditions: 72 h
NK-YS (IL-2 2.5 ng/mL) [11] = test: as above; conditions: 72 h
[12] = test system: normal primary NK cells, pool 1 (3 donors) (IL-2 2.5 ng/mL); test: as above; conditions: 72 h
YT (IL-2 2.5 ng/mL) [13] = test: as above; conditions: 72 h
KAI3 (IL-2 2.5 ng/mL) [14] = test: as above; conditions: 72 h
DERL-7 (IL-2 2.5 ng/mL) [15] = test: drug sensitivity score (DSS) (DSS units); higher = more sensitive; extreme values may be limits of the assay; conditions: 72 h
[16] = test system: normal primary NK cells, pool 1 (3 donors), resting (IL-2 0 ng/mL); test: as above; conditions: 72 h
KHYG-1 (IL-2 2.5 ng/mL) [17] = test: as above; conditions: 72 h
[18] = test system: normal primary NK cells, pool 3 (3 donors) (IL-2 2.5 ng/mL); test: as above; conditions: 72 h
NKL (IL-2 2.5 ng/mL) [19] = test: as above; conditions: 72 h
SNK-6 (IL-2 2.5 ng/mL) [20] = test: as above; conditions: 72 h
NK-92 (IL-2 2.5 ng/mL) [21] = test: as above; conditions: 72 h
IMC-1 (IL-2 20 ng/mL) [22] = test: as above; conditions: 72 h
[23] = test system: normal primary NK cells, pool 2 (3 donors) (IL-2 2.5 ng/mL); test: as above; conditions: 72 h
NK-YS (IL-2 2.5 ng/mL) [24] = test: as above; conditions: 72 h
[25] = test system: normal primary NK cells, pool 1 (3 donors) (IL-2 2.5 ng/mL); test: as above; conditions: 72 h
YT (IL-2 2.5 ng/mL) [26] = test: as above; conditions: 72 h
KAI3 (IL-2 2.5 ng/mL) [27] = test: as above; conditions: 72 h
[28] = test system: normal NK cells expanded with K562-aAPC; test: percent inhibition of viability; higher = more inhibition; conditions: 72 h, IL-2 2.5 ng/mL
Experimental: as §1

Cc1cc(Nc2cc(N3CCN(C)CC3)nc(Sc3ccc(NC(=O)C4CC4)cc3)n2)n[nH]1 [Tozasertib] (max concentration tested 10000 nM)
Conditions | drug sensitivity score
DERL-7 (IL-2 2.5 ng/mL) [15] | 23.6
IMC-1 (IL-2 20 ng/mL) [22] | 17.4
KAI3 (IL-2 2.5 ng/mL) [27] | 11.6
KHYG-1 (IL-2 2.5 ng/mL) [17] | 16.6
NK-92 (IL-2 2.5 ng/mL) [21] | 11.4
NK-YS (IL-2 2.5 ng/mL) [24] | 19.2
NKL (IL-2 2.5 ng/mL) [19] | 2.42
SNK-6 (IL-2 2.5 ng/mL) [20] | 20.9
YT (IL-2 2.5 ng/mL) [26] | 5.97
[1] | 9.96
[16] | 0.14
[18] | 0.53
[23] | 2.02
[25] | 3.05

percent inhibition of viability [%]
Conditions | 1 nM | 10 nM | 100 nM | 1000 nM | 10000 nM
DERL-7 (IL-2 2.5 ng/mL) [2] | 3.54 | -3.04 | 72.5 | 62 | 82
IMC-1 (IL-2 20 ng/mL) [9] | -4.29 | 1.42 | 24 | 78 | 98
KAI3 (IL-2 2.5 ng/mL) [14] | -4.42 | 3.12 | 20.6 | 48.2 | 71.8
KHYG-1 (IL-2 2.5 ng/mL) [4] | -4.48 | 2.48 | 32.5 | 67.5 | 85.3
NK-92 (IL-2 2.5 ng/mL) [8] | -7.92 | -11.5 | 9.53 | 52.9 | 83.8
NK-YS (IL-2 2.5 ng/mL) [11] | -6.33 | 0.35 | 56.9 | 67.3 | 60.3
NKL (IL-2 2.5 ng/mL) [6] | -9.16 | -8.33 | -3.2 | 4.79 | 34.7
SNK-6 (IL-2 2.5 ng/mL) [7] | -3.9 | 3.63 | 58.1 | 74.3 | 61.7
YT (IL-2 2.5 ng/mL) [13] | -3.46 | -2.16 | 13.1 | 25.8 | 47.4
[3] | 2.84 | -2.46 | -18 | -4.6 | 15.2
[5] | -7.32 | -4.94 | 0.04 | -0.07 | 19.2
[10] | -9.84 | -5.4 | -5.23 | -0.34 | 41.1
[12] | -7.78 | -12.4 | -6.71 | 5.08 | 43.4
[28] | -7.6 | -9.83 | 27.1 | 35.3 | 38.2
